Laboratory results as given in US8778643B2, “Methods for increasing lipid levels and producing triacylglycerols in algae” (priority 2012, dated 2014).
Values joined by “and” are separate entries in the source; they are usually repeats but may differ in a detail not shown here. Equal values may be shown once. Read-outs that look alike come from different tables or passages of the source.

Experiments:
[1] = system: Phaeodactylum tricornutum; experiment: Microplate assay: growth (absorbance 680 nm) and intracellular lipids (Nile Red fluorescence); format: cell-based; details: for effect on lipid production / lipid levels: microplate assay, multiple concentrations; for Nile Red Fluorescence % Increase: initial screening, p<0.05
Nannochloris sp. = experiment: as above; format: cell-based
Nannochloropsis salina = details: for % Inc: increase of lipid production; for Nile Red percent increase: dose-response microplate screen
Nannochloropsis oculata = details: for % Lipid increase based on Nile red fluorescence intensity: t=day 0; for % Increase based on Nile Red Fluorescence Intensity: added t=day 0
[2] = Nannochloris sp., compounds tested at 20 μM, initial screening, p<0.05
[3] = N. oculata, compounds tested at 200 nM, initial screening, p<0.05
[4] = microplate assay, multiple concentrations
[5] = 200 nM, initial microplate screen, relative to control
[6] = 40 μM, initial microplate screen, relative to control

Oc1ccc(/C=C/c2cc(O)cc(O)c2)cc1 [Resveratrol, 5-[(E)-2-(4-hydroxyphenyl)ethenyl]benzene-1,3-diol]
% Lipid increase based on Nile red fluorescence intensity ([1]; P. tricornutum, 10 nM, DMSO, t=day 0): 61%
% Increase based on Nile Red Fluorescence Intensity ([1]; P. tricornutum, 10 nM, DMSO delivery, added t=day 0): 61%
Nile Red Fluorescence % Increase (Nannochloris sp.; [2]): 53.3%
% Inc (Nannochloropsis salina; N. salina, best conc. 10 nM): 272.72%
Nile Red Fluorescence % Increase (Nannochloropsis oculata; [3]): 120.4%

O=P(O)(O)Oc1ccc2ccccc2c1 [Napthyl acid phosphate, naphthalen-2-yl hydrogen phosphate]
% Increase based on Nile Red Fluorescence Intensity [1]: 51%
% Lipid increase based on Nile red fluorescence intensity [1]: 51%
% increase (lipid production) [1]: 4% and 1-60%
% increase (lipid production) (Nannochloropsis oculata): 18%

CNC[C@H](O)c1ccc(O)c(O)c1 [Epinephrine]
Nile Red Fluorescence % Increase (Nannochloris sp.): 44.9%
Nile Red Fluorescence % Increase (Nannochloropsis oculata): 129.3%

Oc1cc(O)c2c(c1)O[C@H](c1ccc(O)c(O)c1)[C@H](O)C2 [(−)-epicatechin, (−)-Epicatechin]
effect on lipid production / lipid levels [1]: lipid production increased
effect on lipid production / lipid levels (Nannochloris sp.; [4]): lipid production increased
% Inc (Nannochloropsis salina; N. salina, best conc. 2.4 nM): 147.90%
effect on lipid production / lipid levels (Nannochloropsis salina; [4]): lipid production increased
effect on lipid production / lipid levels (Nannochloropsis oculata; [4]): lipid production increased

O=C(O)/C=C/c1ccc(O)c(O)c1 [Caffeic acid]
% increase (lipid production) ([1]; 6-165 nM): 13-205%
% Lipid increase based on Nile red fluorescence intensity ([1]; P. tricornutum, 4 μM, (water), t=day 0): 94%
% Increase based on Nile Red Fluorescence Intensity ([1]; P. tricornutum, 4 μM, dissolved in water, added t=day 0): 94%
effect on lipid production / lipid levels [1]: minimal effect on lipid production
% increase (lipid production) (Nannochloropsis salina; 0.0252 nM-165.6 nM, DMSO delivery): 1-40%
% increase (lipid production) (Nannochloropsis salina; 0.0252-0.681 nM (H2O)): 62-110 (H2O) %
Nile Red percent increase (Nannochloropsis salina; 0.076-681 nM (H2O)): 96-117%
increase in lipid production (Nannochloropsis salina; diluted in water, microplate): more than 100%
optimal effective concentration (lipid production) (Nannochloropsis salina; lipoxygenase inhibitor microplate screen): 0.22 to 0.68 nM
lipid increase (Nannochloropsis salina; with DMSO, microplate): < 20%
% increase (lipid production) (Nannochloropsis oculata; 0.681 nM): 5%

O=C(NCCN1CCC(n2c(=O)[nH]c3cc(Cl)ccc32)CC1)c1ccc(F)cc1 [Halopemide, N-[2-[4-(5-Chloro-2,3-dihydro-2-oxo-1H-benzimidazol-1-yl)piperidino]ethyl]-4-fluorobenzamide]
% change in abs ([1]; P. tricornutum, 10 μM): −31.22%
% in NR fl ([1]; P. tricornutum, 10 μM): 73.94%
% change in abs (Nannochloropsis oculata; N. oculata, 40 μM): −2.02%
% in NR fl (Nannochloropsis oculata; N. oculata, 40 μM): 55.13%

NS(=O)(=O)c1ccc(N/N=C2\C(=O)Nc3ccc(Br)cc32)cc1 [CDK2 I2]
Absorbance (percent increase) [1, 5]: −7.9%
Nile Red percent increase [1, 5]: 50.3%
Nile Red percent increase ([1]; 2.5 μM, dose-response microplate screen): 160%
Nile Red percent increase ([1]; 10 μM, dose-response microplate screen): 140%
Nile Red percent increase ([1]; 40 μM, dose-response microplate screen): 380%
Absorbance (percent increase) [1, 6]: −14.6%
Nile Red percent increase [1, 6]: 150.6%
% Lipid increase based on Nile red fluorescence intensity ([1]; P. tricornutum, 40 μM, DMSO, t=day 0): 347%
Nile Red Fluorescence % Increase ([1]; P. tricornutum, compounds tested at 200 nM): 50.3%
Nile Red Fluorescence % Increase ([1]; P. tricornutum, compounds tested at 40 μM): 150.6%
% Increase based on Nile Red Fluorescence Intensity ([1]; P. tricornutum, 10 μM, DMSO delivery, added t=day 0): 86%
% Increase based on Nile Red Fluorescence Intensity ([1]; P. tricornutum, 40 μM, DMSO delivery, added t=day 0): 347%
% Inc ([1]; increase of lipid production, P. tricornutum, best conc. 2.5 μM): 163.88%
Nile Red percent increase (Nannochloris sp.; 40 nM-40 μM, dose-response microplate screen): 110-210%
Absorbance (percent increase) (Nannochloris sp.; [5]): −14.0%
Nile Red percent increase (Nannochloris sp.; [5]): 103.2%
Nile Red percent increase (Nannochloropsis salina; 10 μM): 121%
Nile Red percent increase (Nannochloropsis salina; 40 μM): 271%

C/C(=C\CNc1ncnc2nc[nH]c12)CO [Zeatin, (E)-2-methyl-4-(7H-purin-6-ylamino)but-2-en-1-ol]
% Increase based on Nile Red Fluorescence Intensity [1]: 114%
% Lipid increase based on Nile red fluorescence intensity [1]: 114%
% Increase based on Nile Red Fluorescence Intensity (Nannochloropsis salina): 64% and 50%
% Lipid increase based on Nile red fluorescence intensity (Nannochloropsis salina): 64%
Nile Red Fluorescence % Increase (Nannochloropsis oculata): 157.1%

CC(O)C(=O)O (stereo not drawn) [Lactic Acid]
Nile Red Fluorescence % Increase (Nannochloris sp.; [2]): 30.9%
Nile Red Fluorescence % Increase (Nannochloropsis oculata; [3]): 128.8%

O=c1cc(-c2ccccc2)oc2cc(O)c(O)c(O)c12 [Baicalein, 5,6,7-Trihydroxy-2-phenyl-chromen-4-one]
Nile Red percent increase ([1]; 0.0252 nM, dose-response microplate screen): 105%
% increase (lipid production) ([1]; 0.0252-55.2 nM): 5-94%
% increase (lipid production) (Nannochloropsis salina; 0.0252-55.2 nM, DMSO delivery): 3-28%
% increase (lipid production) (Nannochloropsis salina; 0.0252-165.6 nM (H2O)): 6-30 (H2O) %
Nile Red Fluorescence % Increase (Nannochloropsis salina; N. salina, compounds tested at 20 μM, initial screening, p<0.05): 37.3%
% increase (lipid production) (Nannochloropsis oculata; 0.0252 nM): 25%
% Lipid increase based on Nile red fluorescence intensity (Nannochloropsis oculata; N. oculata, 25.2 pM, DMSO): 52%
% Lipid increase based on Nile red fluorescence intensity (Nannochloropsis oculata; N. oculata, 40 μM, (water)): 76%
% Increase based on Nile Red Fluorescence Intensity (Nannochloropsis oculata; N. oculata, 25.2 pM, DMSO delivery): 52%
% Increase based on Nile Red Fluorescence Intensity (Nannochloropsis oculata; N. oculata, 40 μM, dissolved in water): 76%
